Patent US20070293517A1, “Derivatives Of Chemotherapeutic Agents With A Formaldehyde Releasing Moiety” (RAMOT AT TEL AVIV UNIVERSITY LTD., priority 2004, published 2007)

How the values were obtained:
colon carcinoma cells = experiment: Viability of colon carcinoma cells (FIG. 12); assay type: cell-based
Protocol: (§1) Proliferation assay: cells at a density of 3-5×10^4 cells/ml in 200 μl medium supplemented with 10% FCS were seeded in tissue culture 96-well plates for 24 hours, and were then exposed for 72 hours to a novel derivative of a chemotherapeutic agent (in quadruplicate) as specified. After 3 days, the cells were rinsed with PBS, and fixed with ethanol (70%) for 30 minutes. The ethanol was thereafter discarded, 200 μl of 10 μg/ml HOECHST fluorescent dye (Sigma) solubilized in PBS were added and the fluorescence was measured at 390-460 nm with a FluoStar fluorometer. MTT solution (10 ml of 5 mg/ml MTT (Sigma) in PBS) was added, and the plate was incubated for 3 hours. Formazan crystals were dissolved with 140 ml of 0.04 HCl-isopropanol. The optical density of the wells was measured with a microplate reader at 540 nm.
Apoptosis assay: Cells (2×10^5 cells/ml) were seeded in 24-well plates and incubated with a derivative of a chemotherapeutic agent according to the present embodiments, as specified, for 24 hours. The cells were thereafter collected and double-stained with annexin V-FITC and propidium iodide, according to the manufacturer's instructions (MBL, Japan). Alive, apoptotic and total dead cells were quantitated by flow cytometry using a FACS calibur cytometer (Becton Dickinson).

BXPC-3 = experiment: Proliferation assay, BXPC-3 cells; assay type: cell-based, human
From the text: (§2) Cells: The human breast cancer cell lines MCF-7 and MCF-7 DX, were obtained from Dr. R. Supino (Laboratorio Oncologia, Milano, Italy); the murine 3LLD122 highly metastatic Lewis lung carcinoma cell line was obtained from Dr. Eisenbach L, the Weizmann Inst., Israel. The following cell lines were purchased from the ATCC, USA: CT-26, an N-nitroso-N-methylurethane-(NNMU) induced murine (BALB-C) colon carcinoma; Panc02, a mouse (C57/Bl) pancreas adenocarcinoma; HT-49, a human colorectal adenocarcinoma; LS1034, a multidrug resistant human colorectal carcinoma; BxPC-3 human pancreas adenocarcinoma; MES-SA and MES-SA-DXS, human uterine sarcoma sensitive and multidrug resistant, respectively; and Human prostate carcinoma 22RV1, a subclone of CWR22 cells.
(§3) The cells were maintained in DMEM growth medium supplemented with 10% heat inactivated fetal calf serum, 2 mM glutamine, penicillin (250 units/ml) and streptomycin (125 μg/ml) in a humidified 5% CO2/air atmosphere at 37° C.
as §1
(§4) IC50 and IC90 values were determined from the best-fitted curve where the percentages of survival were 50 or 90 respectively.

[1] = tested on: colon cancer cells (LS-1034 and HT-29); experiment: Survival of colon cancer cells (both lines); assay type: cell-based, human
Protocol: Cells: The human breast cancer cell lines MCF-7 and MCF-7 DX, were obtained from Dr. R. Supino (Laboratorio Oncologia, Milano, Italy); the murine 3LLD122 highly metastatic Lewis lung carcinoma cell line was obtained from Dr. Eisenbach L, the Weizmann Inst., Israel. […]
as §1, with “After 3 days, the cells were rinsed with PBS, and fixed with ethanol (70%) for 30 minutes.” left out, “MTT solution (10 ml of 5 mg/ml MTT (Sigma) in PBS) was added, and the plate was incubated for 3 hours. Formazan crystals were dissolved with 140 ml of 0.04 HCl-isopropanol.” left out
as §4

[2] = tested on: 3LLD122 Lewis lung carcinoma; experiment: Metastatic lung model (Lewis lung carcinoma); assay type: in vivo, mice
Protocol: Metastatic lung model: Female C57/BL mice, 6-10 weeks (Harlan, Israel) were […] implanted (in the tail vein) with 5×10^5 3LLD122 cells. Treatment with a derivative of a chemotherapeutic agent according to the present embodiments, for five days per week, commenced 24 hours post cell implantation. After 21 days the animals were sacrificed and their lung lesions were scored under an illuminated magnifying glass.

MES SA DXS = experiment: Proliferation assay, MES SA DXS cells; assay type: cell-based, human; settings: MES SA DXS
From the text: as §2, §3, §1, §4

[3] = tested on: HT-29 human colon carcinoma; experiment: Xenograft flank colon carcinoma model, HT29; assay type: in vivo; settings: nude mice
Protocol: Xenograft flank colon carcinoma models: Eight weeks old, male CD1 nude mice (Harlan, Israel) were inoculated sc in the flanks with 5×10^6 HT29 or LS1034 cells. When tumor volume reached 50-100 mm^3, treatment with derivatives of chemotherapeutic agents according to the present embodiments commenced and was given by gavage five times a week for the duration of the experiment at the specified doses. Tumor volume (determined by caliper) and body weights were measured twice weekly. Tumor volume was measured (mm) using the formula for an ellipsoid sphere: Length×Width^2/2=Volume (mm)^3 This commonly used formula was also used to calculate tumor weight, assuming unit density (1 mm^3=1 mg). Serum PSA or CEA: […] At the end of the experiment blood samples were drawn from the eyes of mice (anesthetized slightly by inhalation of ether) or from the hearts of sacrificed animals.

Panc 02 = experiment: Proliferation assay, Panc 02 cells; assay type: cell-based; settings: Mus musculus, Panc02
From the text: as §2, §3, §1, §4

[4] = tested on: sensitive and resistant uterine cancer cells (MES-SA, MES-SA DXS); experiment: Proliferation/survival, sensitive and resistant uterine cancer cells (both lines); assay type: cell-based, human
From the text: as §2, §1, §4

various cell lines = experiment: Dose response studies in various cell lines, absence and presence of semicarbazide; assay type: cell-based; settings: semicarbazide 0.5 mM
Protocol: as §1
Semicarbazide sensitive amine oxidase is a source of formaldehyde and is therefore a marker for the effect of formaldehyde. It has been shown that semicarbazide traps formaldehyde and reduces its concentration inside the cell (Nudelman et al. J. Med. Chem., 2005, 48, 1047-1054). Thus, the critical role of formaldehyde can be confirmed by reversal of formaldehyde-mediated effects by the addition of semicarbazide.
Tables 3 and 4 below, as well as FIGS. 7A, 7B and 8A-8D present the dose response studies performed with various cell lines in the absence and presence of semicarbazide, the formaldehyde trapping agent.

HT-29 = experiment: Proliferation assay, HT-29 cells; assay type: cell-based, human
CT-26 = experiment: Proliferation assay, CT-26 cells; assay type: cell-based, murine
From the text: as §2, §3, §1, §4

LS-1034 = experiment: Proliferation assay, LS-1034 cells; assay type: cell-based, human
From the text: as §2, §3, §1, §4

MES SA = experiment: Proliferation assay, MES SA cells; assay type: cell-based, human
From the text: as §2, §3, §1, §4

[5] = tested on: human colon carcinoma cells (LS1034); experiment: Xenograft flank colon carcinoma model, LS1034; assay type: in vivo; settings: nude mice sc implanted with LS1034
Protocol: Xenograft flank colon carcinoma models: Eight weeks old, male CD1 nude mice (Harlan, Israel) were inoculated sc in the flanks with 5×10^6 HT29 or LS1034 cells. When tumor volume reached 50-100 mm^3, treatment with derivatives of chemotherapeutic agents according to the present embodiments commenced and was given by gavage five times a week for the duration of the experiment at the specified doses. Tumor volume (determined by caliper) and body weights were measured twice weekly. Tumor volume was measured (mm) using the formula for an ellipsoid sphere: Length×Width^2/2=Volume (mm)^3
Survival was estimated by the Kaplan-Meier curves, and the difference in survival between the groups was analyzed by Wilcoxon's test and using a log-rank test chi-square (JMP 5.0.1.2, Chicago, Ill.).

histone acetylation = experiment: Histone acetylation in treated cells; assay type: cell-based
Protocol: Western blot analysis: Whole cell tissue lysates or acid extracted histones were solubilized in a 4-fold concentrated sample buffer and […] protein samples were separated by SDS-PAGE. The proteins were transferred to a nitrocellulose membrane (Schleicher & Schuell, Germany) and probed with the primary antibodies as indicated, followed by incubation with an HRP-goat anti-rabbit IgG secondary antibody. Visualization of the bound HRP-goat anti-rabbit IgG was performed using the enhanced chemiluminescence that was done using Western Blotting Luminol reagent (cat No. SC-2048, Santa Cruz, Calif., US). Equal amounts of reagent A and B were mixed, and added to the nitrocellulose membrane for 1 minute. Excess liquid was absorbed and the membrane was exposed for 5 minutes to Chemiluminescence BioMax light film (cat. No. 868 9358, Kodak, USA). The intensity of the bands was measured with a Versa Doc instrument with Quantityl program (Bio-Rad, USA). The fold increase of each specific protein was determined by the ratio of band intensities of treated and untreated cells, normalized to loading control (actin or histone H3).

| SMILES | effect on cancer cell viability (% of control) (colon carcinoma cells) | IC50 (BXPC-3; + SC 500 μM) [µM] | IC90 (BXPC-3; + SC 500 μM) [µM] | IC50 (BXPC-3; Homo sapiens) [µM] | IC90 (BXPC-3; Homo sapiens) [µM] | IC50 (MES SA DXS; Homo sapiens) [µM] | IC90 (MES SA DXS; Homo sapiens) [µM] | IC50 (MES SA DXS; + SC 500 μM) [µM] | IC90 (MES SA DXS; + SC 500 μM) [µM] | IC50 (Panc 02) [µM] | IC90 (Panc 02) [µM] | maximal cell killing achieved [4] [%] | reduction of cell killing by co-treatment with semicarbazide (various cell lines) | IC90 (HT-29; HT-29, + SC 500 μM) [µM] | IC90 (HT-29; Homo sapiens, HT-29) [µM] | IC50 (HT-29; Homo sapiens, HT-29, HT-29) [µM] | IC90 (CT-26; CT-26, + SC 500 μM) [µM] | IC50 (CT-26; Mus musculus, CT26, CT-26) [µM] | IC90 (CT-26; Mus musculus, CT26, CT-26) [µM] | IC90 (LS-1034; Homo sapiens, LS-1034) [µM] | further results |
| --- | --- | --- | --- | --- | --- | --- | --- | --- | --- | --- | --- | --- | --- | --- | --- | --- | --- | --- | --- | --- | --- |
| O=c1cc[nH]c(=O)[nH]1 [uracil, reference compound] | no effect | – | – | – | – | – | – | – | – | – | – | – | – | – | – | – | – | – | – | – | – |
| O=c1c(F)cn([C@H]2CCCO2)c(=O)n1CO [AN-436, 5-fluoro-1-((R)-tetrahydrofuran-2-yl)-3-(hydroxymethyl)pyrimidine-2,4(1H,3H)-dione] | – | 160 ± 17 | 460 ± 78 | 81 ± 9 | 191 ± 47 | 63 ± 4 | 101 ± 2 | 203 ± 75 | 356 ± 144 | 96 ± 9 | 219 ± 25 | 100 | up to 3.5 folds | 303 ± 7 | 115 ± 7 | 67 ± 2 | 296 ± 28 | 99 ± 5 | 170 ± 9 | 153 ± 16 | fold more potent than tegafur, based on IC50 values [1]: ≥ 2.5 fold; antimetastatic activity (number of lung lesions) [2]: significantly evident; CEA level in serum [3]: reduced the level significantly; tumor growth inhibition ([3]; P<<0.001): substantially inhibited tumor growth; inhibitory effect on tumor growth compared with tegafur ([3]; p<0.05): significantly higher than the parent compound; IC50 (HT-29; Homo sapiens, HT-29, HT-29, + SC (semicarbazide) 500 μM): 164 ± 12 µM; IC50 (CT-26; Mus musculus, CT26, CT-26, + SC 500 μM): 132 ± 26 µM; IC50 (LS-1034; Homo sapiens, LS-1034, LS-1034): 84 ± 8 µM; IC50 (LS-1034; Homo sapiens, LS-1034, LS-1034, + SC 500 μM): 132 ± 7 µM; IC90 (LS-1034; LS-1034, + SC 500 μM): 252 ± 30 µM; IC50 (MES SA; + SC 500 μM): 182 ± 18 µM; IC90 (MES SA; + SC 500 μM): 456 ± 189 µM; IC50 (MES SA; Homo sapiens): 71 ± 12 µM; IC90 (MES SA; Homo sapiens): 127 ± 19 µM; survival after 82 days [5]: 75% |
| CCCC(=O)OCn1c(=O)c(F)cn(C2CCCO2)c1=O [AN-420, 5-fluoro-2,3-dihydro-3-((R)-tetrahydrofuran-2-yl)-2,6-dioxopyrimidin-1(6H)-yl)methyl butyrate] | significantly more effective than tegafur | 88 ± 6 | 280 ± 36 | 74 ± 4 | 141 ± 5 | 54 ± 5 | 95 ± 8 | 115 ± 29 | 312 ± 116 | 46 ± 3 | 149 ± 19 | 100 | substantially reduced the cell killing | 138 ± 30 | 84 ± 21 | 35 ± 5 | 94 ± 30 | 27 ± 4 | 76 ± 14 | 79 ± 23 | fold more potent than tegafur, based on IC90 values [1]: ≥ 10 fold; histone acetylation in treated cells (histone acetylation): increase of histone acetylation; IC50 (HT-29; HT-29, + SC (semicarbazide) 500 μM): 51 ± 5 µM; IC50 (CT-26; CT-26, + SC 500 μM): 34 ± 10 µM; IC50 (LS-1034; Homo sapiens, LS-1034, LS-1034): 42 ± 7 µM; IC50 (LS-1034; LS-1034, + SC 500 μM): 52 ± 8 µM; IC90 (LS-1034; LS-1034, + SC 500 μM): 105 ± 29 µM; IC50 (MES SA; + SC 500 μM): 92 ± 14 µM; IC90 (MES SA; + SC 500 μM): 214 ± 80 µM; IC50 (MES SA; Homo sapiens): 79 ± 22 µM; IC90 (MES SA; Homo sapiens): 177 ± 77 µM |
| CCCC(=O)OCn1c(=O)cc[nH]c1=O [AN-439, (2,3-Dihydro-2,6-dioxopyrimidin-1(6H)-yl)methyl butyrate] | reduced cell viability in a dose dependent manner | – | – | – | – | – | – | – | – | – | – | – | – | – | – | – | – | – | – | – | – |
